Bounds are passed on as bounds.

The record followed here is US20220340875A1, “METHODS OF CULTURING AND/OR EXPANDING STEM CELLS AND/OR LINEAGE COMMITTED PROGENITOR CELLS USING AMIDO COMPOUNDS” (IDEAYA BIOSCIENCES, INC., priority 2018, published 2022).

The test concerns the target T1, hAhR (Homo sapiens, UniProt P35869).
T1 construct: Stably integrated DRE-luciferase cell lines were generated by transducing the both cell lines with Cignal XRE luciferase reporter (Qiagen) lentiviral particles; endogenous in cells
T1 sequence (P35869 11-848): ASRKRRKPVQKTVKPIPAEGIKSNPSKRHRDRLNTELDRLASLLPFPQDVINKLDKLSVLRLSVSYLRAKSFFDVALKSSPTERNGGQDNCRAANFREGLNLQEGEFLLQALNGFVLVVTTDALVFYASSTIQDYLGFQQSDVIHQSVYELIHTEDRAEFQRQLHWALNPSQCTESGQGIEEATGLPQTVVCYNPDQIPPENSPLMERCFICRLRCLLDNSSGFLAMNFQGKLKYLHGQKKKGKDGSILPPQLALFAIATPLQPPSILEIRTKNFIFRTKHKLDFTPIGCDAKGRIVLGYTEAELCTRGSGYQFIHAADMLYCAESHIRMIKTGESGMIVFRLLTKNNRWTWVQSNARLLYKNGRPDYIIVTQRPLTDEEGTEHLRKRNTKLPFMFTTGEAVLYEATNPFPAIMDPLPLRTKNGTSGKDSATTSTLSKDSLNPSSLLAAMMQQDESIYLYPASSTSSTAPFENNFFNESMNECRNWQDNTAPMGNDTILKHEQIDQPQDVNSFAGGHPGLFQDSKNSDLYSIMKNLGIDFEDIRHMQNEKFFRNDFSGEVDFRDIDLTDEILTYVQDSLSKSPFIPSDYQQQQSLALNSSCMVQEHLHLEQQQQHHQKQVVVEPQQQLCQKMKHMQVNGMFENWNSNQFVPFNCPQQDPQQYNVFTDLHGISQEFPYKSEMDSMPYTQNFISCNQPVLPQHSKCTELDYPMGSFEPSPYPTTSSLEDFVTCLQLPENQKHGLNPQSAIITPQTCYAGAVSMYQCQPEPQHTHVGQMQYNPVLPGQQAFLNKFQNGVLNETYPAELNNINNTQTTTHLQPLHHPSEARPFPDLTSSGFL
Nature of the test: AhR DRE-luciferase reporter transcriptional assay, antagonist mode (TCDD-induced). To be noted: HEPG2 DRE-Luc cells, 3 nM TCDD, 24 hour incubation, relative IC50. The class given is cell-based. The procedure: HEPG2 and HEPA1C1C7 cells were maintained in MEM and αMEM without nucleosides supplemented with 10% heat inactivated FBS respectively. Stably integrated DRE-luciferase cell lines were generated by transducing the both cell lines with Cignal XRE luciferase reporter (Qiagen) lentiviral particles according to the manufacturer protocol. For both cell lines stably integrated reporter cell lines were selected for the presence of 2 µg/mL puromycin. Following selection of stably integrated cell line pools, clonal cell lines were isolated by limiting dilution in 96-well plates. Transcriptional assays were performed by seeding 100 μL of cells at a density of 250,000 or 100,000 cells/mL, for HEPG2 and HEPA1C1C7 DRE-Luc cells respectively, into 96-well cell culture plates in OptiMEM supplemented with 0.5% heat inactivated FBS and allowed to attach overnight. For modulator assays, the compounds were added in a semi-log dose response using a D300e Digital Dispenser (Tecan) followed normalization with vehicle (DMSO). Immediately following compound addition 10 μL of 2,3,7,8-Tetrachlorodibenzo-p-dioxin (TCDD) was added to the cells to a final concentration of 3 nM or 0.3 nM for the HEPG2 and HEPA1C1C7 DRE-Luc cells respectively. Following 24 hour incubation the medium was removed and the cells were lysed in 25 μL of Reporter Lysis Buffer (Promega). Firefly luciferase activity was measured immediately following the addition of 50 μL Luciferase Assay Reagent (Promega). The percent maximal activity for each point was determined using the following equasion: (RLUsample-RLUvehicle−TCDD)/(RLUvehicle+TCDD RLUvehicle−TCDD)*100. The relative IC50, defined as the compound concentration required to reduce the TCDD induced response between the top and bottom plateau of each individual dose response curve by half, for each compound was determined using Prism 7 (GraphPad Software).
For orientation: Reporter assays use an easily measured gene product as a stand-in for the process of interest.
As for `CNC(=O)c1cc(C(=O)N(C)c2ccc(-c3ncc4nc(C(F)(F)F)cc(C)c4n3)cc2C)ccn1` [Example 169, N2,N4-dimethyl-N4-(2-methyl-4-(8-methyl-6-(trifluoromethyl)pyrido-[3,2-d]pyrimidin-2-yl)phenyl)pyridine-2,4-dicarboxamide], the IC50 – broadly, the point on the concentration scale where inhibition reaches its midpoint – was less than 200 nM. `Cc1c(NC(=O)c2ccnn2C)ccc(-c2ncc3nc(C(F)(F)F)cc(C)c3n2)c1F` [Example 174, N-(3-fluoro-2-methyl-4-(8-methyl-6-(trifluoromethyl)pyrido[3,2-d]pyrimidin-2-yl)phenyl)-1-methyl-1H-pyrazole-5-carboxamide]: the IC50 was less than 200 nM. In the case of `Cn1nccc1C(=O)Nc1ccc(-c2ncc3cc(C(F)(F)F)ccc3n2)cc1` [Example 220, 1-methyl-N-(4-(6-(trifluoromethyl)quinazolin-2-yl)phenyl)-1H-pyrazole-5-carboxamide] it was 1000 to 10000 nM. As for `Cc1cc(-c2ccc3cc(C4CC4)ccc3n2)ccc1N(C)C(=O)c1ccnn1C` [Example 069, N-(4-(6-cyclopropylquinolin-2-yl)-2-methylphenyl)-N,1-dimethyl-1H-pyrazole-5-carboxamide], the figure is 1000 to 10000 nM; as for `Cc1cc(-c2ncc3nc(C(F)(F)F)cc(C)c3n2)ccc1N(C)C(=O)c1cc(C(N)=O)nn1CC#N` [Example 198, 1-(cyanomethyl)-N5-methyl-N5-(2-methyl-4-(8-methyl-6-(trifluoro-methyl)pyrido[3,2-d]pyrimidin-2-yl)phenyl)-1H-pyrazole-3,5-dicarboxamide], less than 200 nM.

The compound `Cc1cc(-c2ncc3nc(C(F)(F)F)cc(C)c3n2)ccc1N(C)C(=O)c1cc(C(N)=O)nn1CC(N)=O` [Example 196, 1-(2-amino-2-oxoethyl)-N5-methyl-N5-(2-methyl-4-(8-methyl-6-(trifluoromethyl)pyrido[3,2-d]pyrimidin-2-yl)phenyl)-1H-pyrazole-3,5-dicarboxamide] had a half-inhibitory concentration (IC50) of 1000 to 10000 nM. As for `Cc1cc(-c2ncc3nc(C(F)(F)F)cc(C)c3n2)ccc1N(C)C(=O)c1ccnn1CCOP(=O)(O)O` [Example 194, 2-[5-[methyl([2-methyl-4-[8-methyl-6-(trifluoromethyl)pyrido[3,2-d]pyrimidin-2-yl]phenyl])carbamoyl]-1H-pyrazol-1-yl]ethyl disodium phosphate], the figure is 1000 to 10000 nM. In turn, `Cc1cc(-c2nc3cc(C(F)(F)F)ccc3s2)ccc1NC(=O)c1ccnn1C` [Example 100, 1-methyl-N-(2-methyl-4-(5-(trifluoromethyl)benzo[d]thiazol-2-yl)phenyl)-1H-pyrazole-5-carboxamide] had a concentration for half-maximal inhibition (IC50) of 200 to 500 nM. As for `COc1cnccc1C(=O)N(C)c1ccc(-c2ncc3cc(C(F)(F)F)ccc3n2)cc1C` [Example 145, 3-Methoxy-N-methyl-N-(2-methyl-4-(6-(trifluoromethyl)quinazolin-2-yl)phenyl)isonicotinamide], the figure is less than 200 nM. As for `Cc1cc(-c2ncc3nc(C(F)(F)F)ccc3n2)c(C)cc1NC(=O)c1ccnn1C` [Example 189, N-(2,5-dimethyl-4-(6-(trifluoromethyl)pyrido[3,2-d]pyrimidin-2-yl)phenyl)-1-methyl-1H-pyrazole-5-carboxamide], the figure is 1000 to 10000 nM; as for `Cc1cc(-c2ncc3cc(C(F)(F)F)ccc3n2)ccc1NC(=O)c1ccncc1` [Example 115, N-(2-methyl-4-(6-(trifluoromethyl)quinazolin-2-yl)phenyl)isonicotinamide], less than 200 nM.

As for `Cc1cc(-c2ccc3cc(F)ccc3n2)cnc1NC(=O)c1ccnn1C` [Example 042, N-(5-(6-fluoroquinolin-2-yl)-3-methylpyridin-2-yl)-1-methyl-1H-pyrazole-5-carboxamide], the IC50 lay in the range of 500 to 1000 nM. As for `Cc1cc(-c2ccc3nc(C(F)(F)F)cc(C)c3n2)ccc1N(C)C(=O)c1ccnn1C` [Example 106, N,1-dimethyl-N-(2-methyl-4-(8-methyl-6-(trifluoromethyl)-1,5-naphthyridin-2-yl)phenyl)-1H-pyrazole-5-carboxamide], the figure is less than 200 nM; as for `Cc1cc(C(=O)N(C)c2ccc(-c3ncc4nc(C(F)(F)F)cc(C)c4n3)cc2C)ccn1` [Example 150, N,2-dimethyl-N-(2-methyl-4-(8-methyl-6-(trifluoromethyl)pyrido[3,2-d]pyrimidin-2-yl)phenyl)isonicotinamide], less than 200 nM. As for `Cc1cc(-c2ccc3cc(F)cc(C(F)(F)F)c3n2)ccc1NC(=O)c1ccnn1C` [Example 058, N-(4-(6-fluoro-8-(trifluoromethyl)quinolin-2-yl)-2-methylphenyl)-1-methyl-1H-pyrazole-5-carboxamide], the figure is 200 to 500 nM. As for `COc1cnccc1C(=O)Nc1ccc(-c2ncc3cc(C(F)(F)F)ccc3n2)cc1C` [Example 144, 3-methoxy-N-(2-methyl-4-(6-(trifluoromethyl)quinazolin-2-yl)phenyl)isonicotinamide], the figure is less than 200 nM; as for `[2H]C([2H])([2H])N(C(=O)c1ccnn1C)c1ccc(-c2ccc3cc(C(F)(F)F)ccc3n2)cc1C` [Example 212, 1-methyl-N-(methyl-d3)-N-(2-methyl-4-(6-(trifluoromethyl)quinolin-2-yl)phenyl)-1H-pyrazole-5-carboxamide], less than 200 nM. `Cc1cc(-c2ncc3cc(C(F)(F)F)ccc3n2)ccc1N(C)C(=O)c1ncncc1C` [Example 124, N,5-dimethyl-N-(2-methyl-4-(6-(trifluoromethyl)quinazolin-2-yl)phenyl)pyrimidine-4-carboxamide] showed a concentration for half-maximal inhibition (IC50) of less than 200 nM. As for `Cc1cc(-c2ccc3cc(C(F)(F)F)cc(C)c3n2)ccc1N(C)C(=O)c1ccnn1CCO` [Example 201, 1-(2-hydroxyethyl)-N-methyl-N-(2-methyl-4-(8-methyl-6-(trifluoromethyl)-quinolin-2-yl)phenyl)-1H-pyrazole-5-carboxamide], the figure is less than 200 nM; as for `Cc1cc(-c2ncc3nc(C(F)(F)F)cc(C)c3n2)ccc1NC(=O)c1ccnn1C` [Example 147, 1-methyl-N-(2-methyl-4-(8-methyl-6-(trifluoromethyl)pyrido[3,2-d]pyrimidin-2-yl)phenyl)-1H-pyrazole-5-carboxamide], less than 200 nM; as for `Cc1cc(-c2ccc3ccc(F)cc3n2)ccc1NC(=O)c1ccnn1C` [Example 019, N-(4-(7-fluoroquinolin-2-yl)-2-methylphenyl)-1-methyl-1H-pyrazole-5-carboxamide], 200 to 500 nM.

Compound `Cc1cc(-c2ncc3cc(C(F)(F)F)ccc3n2)ccc1N1CCNC1=O` [Example 141, 1-(2-methyl-4-(6-(trifluoromethyl)quinazolin-2-yl)phenyl)imidazolidin-2-one] yielded a half-maximal inhibitory concentration (IC50) of less than 200 nM. In the case of `Cc1cc(-c2ccc3cc(F)ccc3n2)ccc1NC(=O)c1nccn1C` [Example 033, N-(4-(6-fluoroquinolin-2-yl)-2-methylphenyl)-1-methyl-1H-imidazole-2-carboxamide] it was 200 to 500 nM; in that of `COC(=O)Nc1ccc(-c2ccc3cc(F)ccc3n2)cc1C` [Example 024, methyl (4-(6-fluoroquinolin-2-yl)-2-methylphenyl)carbamate], 200 to 500 nM. In the case of `Cc1cc(-c2ncc3cc(C(F)(F)F)ccc3n2)ccc1NC(=O)c1ncccc1C` [Example 117, 3-methyl-N-(2-methyl-4-(6-(trifluoromethyl)quinazolin-2-yl)phenyl)picolinamide] it was 500 to 1000 nM.
